{"source": "patent US11603387B2", "about": "“SOCS mimetics for the treatment of diseases” (UNIVERSITY OF FLORIDA RESEARCH FOUNDATION, INC., priority 2014, dated 2023)", "key": {"SOCS1": {"system": "SOCS1", "assay": "SOCS1 expression (qPCR, relative to GAPDH) in healthy control PBMCs treated in vitro", "assay_type": "cell-based, human", "conditions": "chloroquine diphosphate salt for 12 and 24 h", "experimental": "FIGS. 9A and 9B. SOCS1 expression is not affected by chloroquine treatment, but is increased by dexamethasone treatment. (FIG. 9A) PBMCs, taken from healthy controls, were treated with (FIG. 9A) chloroquine diphosphate salt at the indicated molar concentrations for 12 and 24 h or (FIG. 9B) dexamethasone at the indicated molar concentrations for 3, 6, 12, or 24 h. Post treatment, SOCS1 expression, relative to GAPDH, was assessed via qPCR. Results shown as mean±s.e.m. The Kruskal-Wallis test followed by the Dunn's Multiple Comparison Test was chosen to assess statistical significance. (*P<0.05).\nPBMCs were purified from heparinized blood by Ficoll-Paque gradient centrifugation. Briefly, whole blood was diluted with PBS (1:1) and gently layered on the Ficoll (Lymphocyte Separation Medium; Cellgro, Manassas, Va.). […]\nUsing the Promega RNA extraction protocol, total RNA was extracted from human PBMCs ex vivo or from mouse CD4^+CD25^− cells after being cultured under control (anti-CD3 and anti-CD28) or Th17 inducing conditions in the presence or absence of SOCS1-KIR peptide. cDNA synthesis and qPCR were performed as described in (Collins et al. 2011), with modifications. […] The amplification reactions took place in a PTC-200 Peltier Thermal Cycler with a CHROMO 4 Continuous Fluorescence Detector (BioRad). […] The fold change in expression was calculated using the ΔΔCT method."}, "SLE patients": {"system": "SLE patients", "assay": "Subgroup analysis of SLE patients with and without prednisone treatment (PBMC western blot, RT-PCR)", "assay_type": "in vivo, human", "conditions": "SLE patients receiving vs not receiving prednisone", "text": "FIGS. 20A-20F. […] Results shown are mean±SE; *represents significant Pearson correlation; ^ represents a t-test with significant mean difference. Correlation was considered significant at 0.05 level (2 tailed).\nThe UF Institutional scientific research and review board (IRB) on human subjects approved the study protocol. Written informed consent were obtained from all patients and controls in the study. In all, 34 SLE patients and 11 healthy controls were enrolled in the present study (Table 5). All SLE patients fulfilled the 1982 American College of Rheumatology (ACR) revised criteria for SLE (Tan et al. 1982). The patient's age ranged from 22 to 73 years while the health controls age ranged from 27 to 55 years. Healthy controls (N=11) were recruited from the outpatient clinics at the participating institutions. All patients underwent baseline investigations as per clinical requirements. Disease activity was assessed by the SLE disease activity index (SLEDAI) (Bombardier et al. 1992).\nPBMCs were purified from heparinized blood by Ficoll-Hypaque gradient centrifugation. Briefly, whole blood was diluted with PBS (1:1) and gently layered on Ficoll (Lymphocyte Separation Medium; Cellgro, Manassas, Va.). Cells were centrifuged continuously at 400×g for 20 minutes. PBMCs were collected from the interface layer and washed 3 times with PBS. After isolation, PBMCs were lysed with RNA lysis buffer (Promega) and stored at −80° C. until RNA extraction and qPCR protocols were performed.\nRT-PCR was performed to determine the transcript levels of SOCS1, SOCS3 and STAT1 genes in PBMCs, relative to GAPDH. In brief, cDNA synthesis was performed using the iQ cDNA synthesis kit (Bio-Rad; Hercules, Calif.). The qPCR was subsequently performed using the iQ SYBR Green Super mix (Bio-Rad) and gene-specific primers for SOCS1, SOCS3, IFN-G and IL-27. The real time RT-PCR reaction was performed on CFX Connect™-Real time system. The PCR for the target gene and GAPDH was duplicated twice for each sample and the results were corrected for GAPDH expression as an internal control. Further the data was analyzed using CFX Manager™ software version 3.0 (Bio-Rad technologies, Inc.).\nFrozen PMBC cell pellets were thawed and lysed in RIPA lysis buffer (Santa Cruz Technologies, Inc.) followed by protein estimation through BSA 2.0 mg/ml standard curve preparation with Pierce protein assay reagents (Thermo Scientific Product #23209). Equal quantities of proteins were loaded and separated in 4%-12% SDS PAGE gel (Bio-rad) and separated proteins were transferred to nitrocellulose membrane (Bio-Rad Laboratories, Hercules, Calif.). The membranes were then blocked and incubated with polyclonal anti-rabbit antibodies specific to the KIR regions of SOCS1 and SOCS3 (a kind gift from Dr. Howard Johnson Labs, UF), anti-pSTAT1; anti-pERK1/2; anti-pAKT and for total STAT1; ERK1/2 and AKT respectively (Cell signaling). Further probed with appropriate secondary antibodies conjugated to HRP, and visualized with the ECL detection system according to the manufacturer's instruction (Pierce; Thermo Scientifics) The GAPDH was used as a loading control. The results were calculated as densitometry arbitrary units using the J image online software."}, "[1]": {"system": "CD4+CD25− T cells from C56BL/6 mice", "assay": "Th17 induction (iTh17) and activation of CD4+CD25− T cells, SOCS1 monomer vs dimer", "assay_type": "cell-based, mouse", "conditions": "Th17 inducing conditions, peptide 20 μM, 5 days", "experimental": "FIG. 11. […] CD4+CD25− T cells from B6 mice were in the presence of Th17 inducing conditions in the presence of SOCS1 monomer or dimer for 5 days. Cells were re-stimulated with PMA, ionomycin, and brefeldin, followed by staining with anti-CD4, anti-IL17, and anti-CD25 antibodies.\nInduction of Th17 cells, iTh17, and the effect of treatment on induction is illustrated in FIG. 11. CD4^+CD25^− T cells from C56BL/6 mice were incubated for 5 days at 37° C. under 1) control conditions (anti-CD3 (10 μg/ml), anti-CD28 (1.5 μg/ml)); 2) Th17 inducing conditions (anti-CD3, anti-CD28, IL-6 (20 ng/ml), TGF-β (5 ng/ml)); 3) Th17 inducing conditions with SOCS1 monomer (20 μM), or Th17 inducing conditions with SOCS1 dimer (20 μM). Following a 5-day incubation, cells were re-stimulated with phorbol myristic acetate (PMA) (50 ng/ml), ionomycin (1 μM), and brefeldin A (10 μg/ml). To assess Th17 differentiation, cells were stained with anti-CD4 and anti-IL-17A antibodies. To assess activation, cells were stained with anti-CD4 and anti-CD25 antibodies."}, "JAK2": {"biological_target": "JAK2 (Homo sapiens, UniProt O60674)", "sequence (O60674 whole entry, species assumed)": "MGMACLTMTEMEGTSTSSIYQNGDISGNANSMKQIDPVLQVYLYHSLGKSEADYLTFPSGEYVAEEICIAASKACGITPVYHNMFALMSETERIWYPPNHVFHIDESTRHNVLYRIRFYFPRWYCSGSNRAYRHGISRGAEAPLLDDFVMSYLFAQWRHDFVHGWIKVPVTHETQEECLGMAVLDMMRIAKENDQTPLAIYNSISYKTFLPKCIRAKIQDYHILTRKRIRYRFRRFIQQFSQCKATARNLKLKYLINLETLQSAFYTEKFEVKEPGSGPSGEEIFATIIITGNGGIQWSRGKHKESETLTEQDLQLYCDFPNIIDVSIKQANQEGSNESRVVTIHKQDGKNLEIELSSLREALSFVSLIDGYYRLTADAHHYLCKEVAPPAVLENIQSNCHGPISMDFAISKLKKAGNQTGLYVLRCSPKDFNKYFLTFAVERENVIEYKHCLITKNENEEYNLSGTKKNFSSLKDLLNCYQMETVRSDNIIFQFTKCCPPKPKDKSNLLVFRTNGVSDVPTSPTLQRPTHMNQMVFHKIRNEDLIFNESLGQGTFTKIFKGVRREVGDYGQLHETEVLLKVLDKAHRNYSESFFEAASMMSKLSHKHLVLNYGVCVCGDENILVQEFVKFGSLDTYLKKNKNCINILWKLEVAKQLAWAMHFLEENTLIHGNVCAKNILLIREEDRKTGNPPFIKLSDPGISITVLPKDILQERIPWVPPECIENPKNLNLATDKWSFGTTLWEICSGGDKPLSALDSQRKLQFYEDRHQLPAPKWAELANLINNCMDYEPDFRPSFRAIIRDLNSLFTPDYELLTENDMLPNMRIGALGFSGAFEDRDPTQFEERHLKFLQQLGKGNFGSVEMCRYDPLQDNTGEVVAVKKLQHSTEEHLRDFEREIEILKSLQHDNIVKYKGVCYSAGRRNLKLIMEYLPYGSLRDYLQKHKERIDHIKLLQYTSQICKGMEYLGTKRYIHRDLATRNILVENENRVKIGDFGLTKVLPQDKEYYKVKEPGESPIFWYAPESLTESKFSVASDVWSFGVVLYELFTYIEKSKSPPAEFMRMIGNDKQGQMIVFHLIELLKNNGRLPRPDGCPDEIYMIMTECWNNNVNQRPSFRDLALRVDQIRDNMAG", "assay": "Binding to the activation loop of JAK2", "conditions": "dimer compared with monomer"}, "Anti-cellular activity": {"assay": "Anti-cellular activity", "assay_type": "cell-based", "conditions": "dimer compared with monomer"}}}
{"compound": "CCN(CC)CCCC(C)Nc1ccnc2cc(Cl)ccc12", "note": "(stereo not shown) [chloroquine]", "values": [{"measurement": "SOCS1 expression", "setting": "SOCS1", "value": "not affected"}]}
{"compound": "C[C@]12C=CC(=O)C=C1CC[C@@H]1[C@@H]2C(=O)C[C@@]2(C)[C@H]1CC[C@]2(O)C(=O)CO", "note": "[prednisone]", "values": [{"measurement": "SOCS 1/3 message expression", "setting": "SLE patients", "value": "no effect"}, {"measurement": "SOCS3 protein levels", "setting": "SLE patients", "value": "no effect"}, {"measurement": "STAT1 phosphorylation", "setting": "SLE patients", "value": "no effect"}, {"measurement": "SOCS1 protein levels", "setting": "SLE patients; significant in inactive SLEDIA (n=9, p<0.001)", "value": "consistently had higher SOCS1 protein levels"}, {"measurement": "pErk1/2 activation", "setting": "SLE patients; significant in inactive SLEDIA patients", "value": "higher levels of pErk1/2 activation"}]}
{"compound": "DTHFRTFRSHSDYRRIGGGGGGDTHFRTFRSHSDYRRI (SOCS1-KIR dimer peptide) [SOCS1-KIR mimetic as a dimer with a six glycine (G) linker]", "values": [{"measurement": "Inhibition of CD4+ T cell activation (CD25 staining)", "setting": "[1]", "value": "More Effective than SOCS1 Monomer"}, {"measurement": "Inhibition of iTh17 induction (IL-17A staining)", "setting": "[1]", "value": "greater inhibitory effects on iTh17 than did the monomer"}, {"measurement": "Avidity for the activation loop of JAK2", "setting": "JAK2", "value": "significantly increased the avidity"}, {"measurement": "Anti-cellular activity", "setting": "Anti-cellular activity", "value": "increased anti-cellular activity"}]}
